Results from PubChem BioAssay AID330 (DTP/NCI, 2004).
Several values for one entry are separate records, joined by “and”; a condition that tells them apart may be missing. Equal entries are not always repeated. Toxic doses and inconclusive results are not listed.

System: P388 leukemia ip, CD2F1 mice, survival T/C
Experiment: NCI In Vivo Anticancer Drug Screen. Data for tumor model P388 Leukemia (intraperitoneal) in CD2F1 (CDF1) mice
Conditions: endpoint: median survival time, higher = longer survival
Method in brief: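 Mice carrying the transplanted tumor received test compound or vehicle. Survival was recorded in each group, and the value is the treated-group measurement divided by that of the vehicle-treated control group.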

[1] = dose: 50.0 mg/kg/injection, schedule: Q01DX005 (ip), vehicle: Klucel (hydroxypropylcellulose) (HPC)
[2] = dose: 100.0 mg/kg/injection, schedule: Q01DX005 (ip), vehicle: Klucel (hydroxypropylcellulose) (HPC)
[3] = dose: 25.0 mg/kg/injection, schedule: Q04DX002 (ip), vehicle: saline with Tween-80
[4] = dose: 50.0 mg/kg/injection, schedule: Q04DX002 (ip), vehicle: saline with Tween-80
[5] = dose: 50.0 mg/kg/injection, schedule: Q01DX009 (ip), vehicle: saline with Tween-80
[6] = dose: 100.0 mg/kg/injection, schedule: Q01DX009 (ip), vehicle: saline with Tween-80
[7] = dose: 200.0 mg/kg/injection, schedule: Q01DX009 (ip), vehicle: saline with Tween-80
[8] = dose: 100.0 mg/kg/injection, schedule: Q04DX003 (ip), vehicle: saline with Tween-80
[9] = dose: 200.0 mg/kg/injection, schedule: Q04DX003 (ip), vehicle: saline with Tween-80
[10] = dose: 400.0 mg/kg/injection, schedule: Q04DX003 (ip), vehicle: saline with Tween-80

CCCCCCCCCCCCCCCCCC(=O)NC(CC(=O)OCCCCCC)c1ccc(N(CCCl)CCCl)cc1 (configuration not stated)
T/C (dose: 4.3 mg/kg/injection, schedule: Q01DX009 (ip), vehicle: saline): 163 % of control
T/C (dose: 8.6 mg/kg/injection, schedule: Q01DX009 (ip), vehicle: saline): 186 % of control
T/C (dose: 8.6 mg/kg/injection, schedule: Q03HX008 (ip), vehicle: saline): 150 % of control
T/C (dose: 17.2 mg/kg/injection, schedule: Q01DX009 (ip), vehicle: saline): 213 % of control
T/C (dose: 17.2 mg/kg/injection, schedule: Q03HX008 (ip), vehicle: saline): 165 % of control
T/C (dose: 34.4 mg/kg/injection, schedule: Q03HX008 (ip), vehicle: saline): 200 % of control
T/C (dose: 34.5 mg/kg/injection, schedule: Q03HX008 (ip), vehicle: saline): 250 % of control
T/C (dose: 68.8 mg/kg/injection, schedule: Q03HX008 (ip), vehicle: saline): 315 % of control
T/C (dose: 138.0 mg/kg/injection, schedule: Q03HX008 (ip), vehicle: saline): 168 % of control
T/C (dose: 275.0 mg/kg/injection, schedule: Q03HX008 (ip), vehicle: saline): 163 % of control

COC(=O)C(C)(OC)OC
T/C (dose: 100.0 mg/kg/injection, schedule: Q04DX003 (ip), vehicle: saline): 100 % of control
T/C (dose: 200.0 mg/kg/injection, schedule: Q04DX003 (ip), vehicle: saline): 109 % of control
T/C (dose: 400.0 mg/kg/injection, schedule: Q04DX003 (ip), vehicle: saline): 100 % of control

CNC(=S)/N=c1/sc([N+](=O)[O-])c(C)n1C
T/C (dose: 1.87 mg/kg/injection, schedule: Q01DX005 (ip), vehicle: saline with Tween-80): 94 % of control
T/C (dose: 3.75 mg/kg/injection, schedule: Q01DX005 (ip), vehicle: saline with Tween-80): 92 % of control
T/C (dose: 7.5 mg/kg/injection, schedule: Q01DX005 (ip), vehicle: saline with Tween-80): 99 % of control and 97 % of control
T/C (dose: 15.0 mg/kg/injection, schedule: Q01DX005 (ip), vehicle: saline with Tween-80): 95 % of control

O=C(NC(Cc1cn(Cc2ccccc2)cn1)C(=O)O)OCC1c2ccccc2-c2ccccc21 (configuration not stated)
T/C [1]: 104 % of control
T/C [2]: 98 % of control
T/C (dose: 200.0 mg/kg/injection, schedule: Q01DX005 (ip), vehicle: Klucel (hydroxypropylcellulose) (HPC)): 99 % of control

COc1cc(OC)cc(C2(C(O)C3OC(C)(C)OC3C)SCCCS2)c1 (configuration not stated)
T/C (dose: 100.0 mg/kg/injection, schedule: Q01DX001 (ip), vehicle: Klucel (hydroxypropylcellulose) (HPC)): 103 % of control
T/C (dose: 200.0 mg/kg/injection, schedule: Q01DX001 (ip), vehicle: Klucel (hydroxypropylcellulose) (HPC)): 99 % of control
T/C (dose: 400.0 mg/kg/injection, schedule: Q01DX001 (ip), vehicle: Klucel (hydroxypropylcellulose) (HPC)): 97 % of control

CCC[CH2][Sn]([CH2]CCC)([O]C=O)[O]C=O
T/C (dose: 0.39 mg/kg/injection, schedule: Q01DX009 (ip), vehicle: saline): 99 % of control and 108 % of control
T/C (dose: 0.79 mg/kg/injection, schedule: Q01DX009 (ip), vehicle: saline): 100 % of control and 92 % of control
T/C (dose: 1.56 mg/kg/injection, schedule: Q01DX009 (ip), vehicle: saline): 86 % of control and 94 % of control

CC(=C\c1ccc(Cl)c(Cl)c1)/C(C)=N/NC(N)=Nc1ccccc1
T/C [3]: 105 % of control
T/C [4]: 103 % of control

OCC(CO)c1ccccc1
T/C (dose: 37.5 mg/kg/injection, schedule: Q04DX003 (ip), vehicle: saline): 97 % of control
T/C (dose: 75.0 mg/kg/injection, schedule: Q04DX003 (ip), vehicle: saline): 100 % of control
T/C (dose: 150.0 mg/kg/injection, schedule: Q04DX003 (ip), vehicle: saline): 100 % of control

COC(=O)C(NC(=O)c1ccccc1)C1CCC(Cl)CN1C(=O)OCc1ccccc1 (configuration not stated)
T/C (dose: 8.75 mg/kg/injection, schedule: Q01DX009 (ip), vehicle: Klucel (hydroxypropylcellulose) (HPC)): 100 % of control
T/C (dose: 17.5 mg/kg/injection, schedule: Q01DX009 (ip), vehicle: Klucel (hydroxypropylcellulose) (HPC)): 100 % of control
T/C (dose: 35.0 mg/kg/injection, schedule: Q01DX009 (ip), vehicle: Klucel (hydroxypropylcellulose) (HPC)): 100 % of control
T/C (dose: 70.0 mg/kg/injection, schedule: Q01DX009 (ip), vehicle: Klucel (hydroxypropylcellulose) (HPC)): 92 % of control

O=C(O)C1CSC2(CCCN(Cc3ccccc3)C2)N1 (configuration not stated)
T/C (dose: 50.0 mg/kg/injection, schedule: Q01DX009 (ip), vehicle: saline): 96 % of control
T/C (dose: 100.0 mg/kg/injection, schedule: Q01DX009 (ip), vehicle: saline): 106 % of control
T/C (dose: 200.0 mg/kg/injection, schedule: Q01DX009 (ip), vehicle: saline): 113 % of control

N#CC1Sc2ccccc2N1C(=O)OCc1ccccc1 (configuration not stated)
T/C (dose: 60.0 mg/kg/injection, schedule: Q01DX005 (ip), vehicle: saline with Tween-80): 93 % of control
T/C (dose: 120.0 mg/kg/injection, schedule: Q01DX005 (ip), vehicle: saline with Tween-80): 92 % of control
T/C (dose: 240.0 mg/kg/injection, schedule: Q01DX005 (ip), vehicle: saline with Tween-80): 91 % of control

CC1(C)CCCc2conc21
T/C [5]: 96 % of control
T/C [6]: 101 % of control
T/C [7]: 96 % of control

Cn1c(N)c(C(=S)N2CCOCC2)c(=O)n(C)c1=O
T/C [3]: 100 % of control
T/C [4]: 104 % of control
T/C (dose: 100.0 mg/kg/injection, schedule: Q04DX002 (ip), vehicle: saline with Tween-80): 104 % of control

CCCCCC/C=C/C1CC(=O)OC1=O (configuration not stated)
T/C [8]: 95 % of control

Cc1ccc(OP(=O)(Oc2ccc(C)cc2)Oc2ccc(C)cc2)cc1.Cc1ccc(OP(=O)(Oc2ccc(C)cc2)Oc2ccc(C)cc2)cc1.Cc1ccc(OP(=O)(Oc2ccc(C)cc2)Oc2ccc(C)cc2)cc1.Cc1ccc(OP(=O)(Oc2ccc(C)cc2)Oc2ccc(C)cc2)cc1.[Ni+2].[O-][Cl+3]([O-])([O-])O
T/C (dose: 20.0 mg/kg/injection, schedule: Q01DX001 (ip), vehicle: Klucel (hydroxypropylcellulose) (HPC)): 100 % of control
T/C (dose: 40.0 mg/kg/injection, schedule: Q01DX001 (ip), vehicle: Klucel (hydroxypropylcellulose) (HPC)): 106 % of control
T/C (dose: 80.0 mg/kg/injection, schedule: Q01DX001 (ip), vehicle: Klucel (hydroxypropylcellulose) (HPC)): 97 % of control

O=C1C/C(=N\Nc2nc(-c3ccc(Cl)cc3)cs2)C(c2ccccc2)N1c1ccccc1 (configuration not stated)
T/C (dose: 100.0 mg/kg/injection, schedule: Q01DX001 (ip), vehicle: saline with Tween-80): 98 % of control
T/C (dose: 200.0 mg/kg/injection, schedule: Q01DX001 (ip), vehicle: saline with Tween-80): 90 % of control
T/C (dose: 400.0 mg/kg/injection, schedule: Q01DX001 (ip), vehicle: saline with Tween-80): 90 % of control

O=c1nc2ccccc2c2n1CCN2
T/C (dose: 50.0 mg/kg/injection, schedule: Q01DX005 (ip), vehicle: saline with Tween-80): 105 % of control
T/C (dose: 100.0 mg/kg/injection, schedule: Q01DX005 (ip), vehicle: saline with Tween-80): 101 % of control
T/C (dose: 200.0 mg/kg/injection, schedule: Q01DX005 (ip), vehicle: saline with Tween-80): 100 % of control

C=C(C)c1c(C)nc2c(N)nc(N)[n+]([O-])c2[n+]1[O-]
T/C (dose: 37.5 mg/kg/injection, schedule: Q01DX009 (ip), vehicle: saline): 108 % of control
T/C (dose: 75.0 mg/kg/injection, schedule: Q01DX009 (ip), vehicle: saline): 118 % of control
T/C (dose: 150.0 mg/kg/injection, schedule: Q01DX009 (ip), vehicle: saline): 101 % of control

COc1ccc2c(c1)CCC1C2CCC2(C)C1CCC2(O)CCOS(=O)(=O)c1ccc(C)cc1 (configuration not stated)
T/C (dose: 50.0 mg/kg/injection, schedule: Q01DX009 (ip), vehicle: Klucel (hydroxypropylcellulose) (HPC)): 97 % of control
T/C [5]: 100 % of control
T/C (dose: 100.0 mg/kg/injection, schedule: Q01DX009 (ip), vehicle: Klucel (hydroxypropylcellulose) (HPC)): 97 % of control
T/C [6]: 99 % of control
T/C (dose: 200.0 mg/kg/injection, schedule: Q01DX009 (ip), vehicle: Klucel (hydroxypropylcellulose) (HPC)): 94 % of control
T/C [7]: 104 % of control

COc1ccc(Br)cc1/C=N/N=C/c1cc(Br)ccc1OC
T/C [8]: 90 % of control
T/C [9]: 86 % of control
T/C [10]: 86 % of control

O=C(O)CN=C1C=CC(=NCC(=O)O)C=C1
T/C [1]: 109 % of control
T/C [2]: 108 % of control

CC1(C)OCC(C2OC(O)C3OC(C)(C)OC32)O1 (configuration not stated)
T/C (dose: 50.0 mg/kg/injection, schedule: Q01DX005 (ip), vehicle: saline): 100 % of control
T/C (dose: 100.0 mg/kg/injection, schedule: Q01DX005 (ip), vehicle: saline): 101 % of control
T/C (dose: 200.0 mg/kg/injection, schedule: Q01DX005 (ip), vehicle: saline): 107 % of control

Br/C(C=Nc1ccccc1)=C\Nc1ccccc1
T/C [8]: 118 % of control
T/C [9]: 109 % of control
T/C [10]: 104 % of control
